Results from ChEMBL document CHEMBL4680325, “Design and synthesis of 14 and 15-membered macrocyclic scaffolds exhibiting inhibitory activities of hypoxia-inducible factor 1α” (Bioorg Med Chem, 2021).

Key:
[1] = Inhibition of hypoxia-induced HIF1alpha/P300-CBP interaction mediated gene transcriptional activity in human HeLa cells co-transfected with luciferase reporter plasmid containing HRE and pRL-CMV vector incubated for 12 hrs under hypoxic condition by HRE-dependent dual luciferase reporter gene assay; format: cell-based
HeLa [2] = experiment: Antiproliferative activity against human HeLa cells assessed as reduction in cell proliferation measured after 48 hrs by MTT assay; format: functional, cell-based
HCT-116 = experiment: Antiproliferative activity against human HCT-116 cells assessed as reduction in cell proliferation measured after 2 days by MTT assay; format: functional, cell-based; conditions: HCT-116, 48 h
DMS-114 = experiment: Antiproliferative activity against human DMS-114 cells assessed as reduction in cell proliferation measured after 2 days by MTT assay; format: functional, cell-based; conditions: DMS-114, 48 h
HeLa [3] = experiment: Cytotoxicity against human HeLa cells co-transfected with luciferase reporter plasmid containing HRE and pRL-CMV vector incubated for 12 hrs under hypoxic condition by MTT assay; format: cell-based

CC(C)CCN1CCCCN(CCCc2ccccc2)C(=O)CN[C@@H](C)C(=O)N[C@@H](CC(C)C)C1=O
IC50 [1]: 9.96 µM
IC50 (HeLa [2]): 58.9 µM
IC50 (HCT-116): 34.8 µM
IC50 (DMS-114): 45 µM
IC50 (HeLa [3]): > 50 µM

CC(C)CCC(=O)N1CCCCN(CCC(C)C)C(=O)[C@H](CC(C)C)NC(=O)[C@H](C)NC(=O)C1
IC50 [1]: > 33 µM
IC50 (HeLa [2]): > 100 µM
IC50 (HCT-116): 83.8 µM
IC50 (DMS-114): > 90 µM
IC50 (HeLa [3]): > 50 µM

CC(C)CCN1CCCCCN(CCCc2ccccc2)C(=O)CN[C@@H](C)C(=O)N[C@@H](CC(C)C)C1=O
IC50 [1]: 8.7 µM
IC50 (HeLa [2]): 55.5 µM
IC50 (HCT-116): 34.3 µM
IC50 (DMS-114): 49 µM
IC50 (HeLa [3]): > 50 µM

CC(C)CCN1CCCCN(CCCc2ccccc2)C(=O)CN2CCC[C@H]2C(=O)N[C@@H](CC(C)C)C1=O
IC50 [1]: 9.5 µM
IC50 (HeLa [2]): 66.4 µM
IC50 (HCT-116): 12.3 µM
IC50 (DMS-114): 17.3 µM
IC50 (HeLa [3]): > 50 µM

CC(C)CCN1C/C=C/CN(CCCc2ccccc2)C(=O)CN[C@@H](C)C(=O)N[C@@H](CC(C)C)C1=O
IC50 [1]: 16.3 µM
IC50 (HeLa [2]): 97.1 µM
IC50 (HCT-116): 25.1 µM
IC50 (DMS-114): 32.2 µM
IC50 (HeLa [3]): > 50 µM

CC(C)CCN1C/C=C/CN(CCCc2ccccc2)C(=O)CN2CCC[C@H]2C(=O)N[C@@H](CC(C)C)C1=O
IC50 [1]: 13.8 µM
IC50 (HeLa [2]): 54 µM
IC50 (HCT-116): 17.1 µM
IC50 (DMS-114): 20.9 µM
IC50 (HeLa [3]): > 50 µM

CC(C)CCC(=O)N1C/C=C/CN(CCC(C)C)C(=O)[C@H](CC(C)C)NC(=O)[C@H](C)NC(=O)C1
IC50 [1]: > 33 µM
IC50 (HeLa [2]): > 100 µM
IC50 (HCT-116): > 90 µM
IC50 (DMS-114): > 90 µM
IC50 (HeLa [3]): > 50 µM

CC(C)CCN1C/C=C/CCN(CCCc2ccccc2)C(=O)CN[C@@H](C)C(=O)N[C@@H](CC(C)C)C1=O
IC50 [1]: 13.7 µM
IC50 (HeLa [2]): 71.2 µM
IC50 (HCT-116): 33.3 µM
IC50 (DMS-114): 48.9 µM
IC50 (HeLa [3]): > 50 µM

OCc1ccc(-c2nn(Cc3ccccc3)c3ccccc23)o1
IC50 [1]: 1 µM
